In patent US11753395B2 (Kinnate Biopharma Inc., priority 2021, dated 2023):

Columns and labels:
[1] = biological target: T1, MET (Homo sapiens, UniProt P08581); assay: MET Mobility Shift Assay; conditions: biochemical assay IC50; 100 μM ATP, 60 minute kinase reaction
T1 construct: purchased Carna Biosciences 08-151
In short: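 IC50s come from inhibition of substrate-to-phosphopeptide conversion, read by electrophoretic mobility shift. Reaction: 100 μM ATP, 1.5 μM 5-FAM peptide, 0.625 nM MET, 10 mM MgCl2, 60 min, after a 30 min room-temperature enzyme pre-incubation, quenched with EDTA.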

[2] = biological target: T2, MET D1228N (Homo sapiens, UniProt P08581, D1228N); assay: MET D1228N Mobility Shift Assay; conditions: biochemical assay IC50; 100 μM ATP, 60 minute kinase reaction
T2 construct: purchased Signalchem M52-12IG
T2 sequence (P08581 25-1390 D1228N): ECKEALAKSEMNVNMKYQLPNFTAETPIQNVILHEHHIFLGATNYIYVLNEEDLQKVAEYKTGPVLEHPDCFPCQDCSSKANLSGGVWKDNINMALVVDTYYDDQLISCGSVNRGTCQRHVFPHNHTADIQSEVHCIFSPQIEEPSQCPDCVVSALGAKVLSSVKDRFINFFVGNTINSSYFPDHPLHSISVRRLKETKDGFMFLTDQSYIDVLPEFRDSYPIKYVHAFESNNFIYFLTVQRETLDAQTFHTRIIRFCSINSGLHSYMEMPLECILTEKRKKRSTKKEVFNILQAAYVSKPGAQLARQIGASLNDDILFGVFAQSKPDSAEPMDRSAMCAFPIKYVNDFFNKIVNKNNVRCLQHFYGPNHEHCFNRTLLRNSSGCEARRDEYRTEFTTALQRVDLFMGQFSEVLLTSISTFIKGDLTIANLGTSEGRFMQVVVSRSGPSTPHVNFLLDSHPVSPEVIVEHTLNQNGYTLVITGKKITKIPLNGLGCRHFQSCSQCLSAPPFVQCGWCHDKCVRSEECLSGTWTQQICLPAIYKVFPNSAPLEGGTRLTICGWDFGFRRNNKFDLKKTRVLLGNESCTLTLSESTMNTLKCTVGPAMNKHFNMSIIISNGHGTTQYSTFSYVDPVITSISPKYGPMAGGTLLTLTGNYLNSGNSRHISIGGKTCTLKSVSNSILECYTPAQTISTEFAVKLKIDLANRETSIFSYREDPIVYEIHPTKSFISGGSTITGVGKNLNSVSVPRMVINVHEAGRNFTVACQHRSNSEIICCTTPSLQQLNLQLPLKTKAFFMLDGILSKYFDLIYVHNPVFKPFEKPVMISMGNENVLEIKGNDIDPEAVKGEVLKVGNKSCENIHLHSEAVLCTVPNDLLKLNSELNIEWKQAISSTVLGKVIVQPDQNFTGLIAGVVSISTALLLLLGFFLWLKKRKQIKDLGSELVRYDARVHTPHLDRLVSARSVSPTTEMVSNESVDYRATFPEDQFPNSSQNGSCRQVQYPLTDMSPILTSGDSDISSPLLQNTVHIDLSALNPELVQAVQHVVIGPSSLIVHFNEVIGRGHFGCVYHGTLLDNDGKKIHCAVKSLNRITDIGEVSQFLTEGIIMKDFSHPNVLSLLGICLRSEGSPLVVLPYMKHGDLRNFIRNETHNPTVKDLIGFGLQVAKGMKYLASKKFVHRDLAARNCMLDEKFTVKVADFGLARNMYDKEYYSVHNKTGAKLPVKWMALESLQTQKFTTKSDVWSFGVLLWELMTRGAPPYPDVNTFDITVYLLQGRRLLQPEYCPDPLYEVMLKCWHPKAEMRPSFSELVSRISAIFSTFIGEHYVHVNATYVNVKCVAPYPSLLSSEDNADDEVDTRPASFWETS
In short: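 Microfluidic electrophoresis quantified phosphorylated versus unphosphorylated 5-FAM-KKKKEEIYFFF peptide (1.5 μM) after a 60 min reaction with 100 μM ATP. MET D1228N (0.313 nM) in 50 mM HEPES, 10 mM MgCl2, 2 mM DTT was preincubated 30 min; IC50 fitted to conversion inhibition.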

[3] = biological target: T3, Ba/F3-TPR-MET cells (Homo sapiens, UniProt P08581); assay: CellTiter-Glo Cell Viability Assay, Ba/F3-TPR-MET; assay type: cell-based; conditions: 72 hours
T3 construct: fused on or other part: P12270 (Nucleoprotein TPR)
In short: (§1)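 IC50 values come from curve-fitted luminescence. Viable-cell ATP was read by CellTiter-Glo 2.0 after a 72 h, 37 °C incubation of 3000 TPR-MET or D1228N-mutant Ba/F3 cells per well. Compounds were tested as a 9-point, 3-fold series with 0.1% DMSO final.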

[4] = biological target: T4, Ba/F3-TPR-MET-D1228N cells (Homo sapiens, UniProt P08581, D1228N, cells depend on it); assay: CellTiter-Glo Cell Viability Assay, Ba/F3-TPR-MET-D1228N; assay type: cell-based; conditions: 72 hours
T4 construct: fused on or other part: P12270 (Nucleoprotein TPR)
T4 sequence (P08581 whole entry D1228N, the tested form may be a part): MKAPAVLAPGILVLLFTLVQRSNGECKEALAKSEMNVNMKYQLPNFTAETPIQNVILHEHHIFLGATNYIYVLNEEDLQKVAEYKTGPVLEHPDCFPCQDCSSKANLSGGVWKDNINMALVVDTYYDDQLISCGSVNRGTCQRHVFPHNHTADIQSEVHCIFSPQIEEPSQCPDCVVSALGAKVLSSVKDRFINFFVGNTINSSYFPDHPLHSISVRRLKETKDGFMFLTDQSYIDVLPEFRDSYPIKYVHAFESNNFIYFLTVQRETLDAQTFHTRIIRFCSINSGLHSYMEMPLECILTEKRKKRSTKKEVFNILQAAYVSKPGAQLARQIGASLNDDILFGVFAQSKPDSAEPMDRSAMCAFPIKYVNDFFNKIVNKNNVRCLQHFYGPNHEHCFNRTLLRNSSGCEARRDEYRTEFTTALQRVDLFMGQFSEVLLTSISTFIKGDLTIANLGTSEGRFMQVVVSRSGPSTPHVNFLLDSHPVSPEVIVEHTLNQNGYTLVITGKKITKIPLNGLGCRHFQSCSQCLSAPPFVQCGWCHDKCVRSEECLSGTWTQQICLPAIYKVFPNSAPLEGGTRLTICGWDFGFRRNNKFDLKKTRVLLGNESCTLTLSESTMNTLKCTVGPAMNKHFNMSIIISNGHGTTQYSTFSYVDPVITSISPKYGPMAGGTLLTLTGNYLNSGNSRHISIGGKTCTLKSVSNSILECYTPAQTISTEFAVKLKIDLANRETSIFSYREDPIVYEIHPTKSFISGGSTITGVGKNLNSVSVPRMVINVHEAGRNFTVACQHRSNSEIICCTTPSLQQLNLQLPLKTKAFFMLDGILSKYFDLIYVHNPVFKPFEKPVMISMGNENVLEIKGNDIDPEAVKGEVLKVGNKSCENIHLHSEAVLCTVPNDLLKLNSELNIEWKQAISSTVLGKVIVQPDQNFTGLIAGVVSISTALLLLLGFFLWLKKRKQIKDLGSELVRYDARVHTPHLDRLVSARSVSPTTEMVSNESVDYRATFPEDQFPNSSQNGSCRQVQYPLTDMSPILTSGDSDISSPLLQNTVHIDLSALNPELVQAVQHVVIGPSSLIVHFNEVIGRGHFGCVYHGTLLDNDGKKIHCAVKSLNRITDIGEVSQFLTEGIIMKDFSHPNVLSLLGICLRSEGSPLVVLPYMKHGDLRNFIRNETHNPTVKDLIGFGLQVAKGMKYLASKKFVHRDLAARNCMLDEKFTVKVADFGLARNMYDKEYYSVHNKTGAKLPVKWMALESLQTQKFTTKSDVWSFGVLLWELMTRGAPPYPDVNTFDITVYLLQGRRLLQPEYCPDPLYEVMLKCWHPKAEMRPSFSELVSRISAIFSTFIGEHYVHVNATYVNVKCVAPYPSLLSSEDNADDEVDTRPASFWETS
In short: as §1

T1 sequence (P08581 25-1390): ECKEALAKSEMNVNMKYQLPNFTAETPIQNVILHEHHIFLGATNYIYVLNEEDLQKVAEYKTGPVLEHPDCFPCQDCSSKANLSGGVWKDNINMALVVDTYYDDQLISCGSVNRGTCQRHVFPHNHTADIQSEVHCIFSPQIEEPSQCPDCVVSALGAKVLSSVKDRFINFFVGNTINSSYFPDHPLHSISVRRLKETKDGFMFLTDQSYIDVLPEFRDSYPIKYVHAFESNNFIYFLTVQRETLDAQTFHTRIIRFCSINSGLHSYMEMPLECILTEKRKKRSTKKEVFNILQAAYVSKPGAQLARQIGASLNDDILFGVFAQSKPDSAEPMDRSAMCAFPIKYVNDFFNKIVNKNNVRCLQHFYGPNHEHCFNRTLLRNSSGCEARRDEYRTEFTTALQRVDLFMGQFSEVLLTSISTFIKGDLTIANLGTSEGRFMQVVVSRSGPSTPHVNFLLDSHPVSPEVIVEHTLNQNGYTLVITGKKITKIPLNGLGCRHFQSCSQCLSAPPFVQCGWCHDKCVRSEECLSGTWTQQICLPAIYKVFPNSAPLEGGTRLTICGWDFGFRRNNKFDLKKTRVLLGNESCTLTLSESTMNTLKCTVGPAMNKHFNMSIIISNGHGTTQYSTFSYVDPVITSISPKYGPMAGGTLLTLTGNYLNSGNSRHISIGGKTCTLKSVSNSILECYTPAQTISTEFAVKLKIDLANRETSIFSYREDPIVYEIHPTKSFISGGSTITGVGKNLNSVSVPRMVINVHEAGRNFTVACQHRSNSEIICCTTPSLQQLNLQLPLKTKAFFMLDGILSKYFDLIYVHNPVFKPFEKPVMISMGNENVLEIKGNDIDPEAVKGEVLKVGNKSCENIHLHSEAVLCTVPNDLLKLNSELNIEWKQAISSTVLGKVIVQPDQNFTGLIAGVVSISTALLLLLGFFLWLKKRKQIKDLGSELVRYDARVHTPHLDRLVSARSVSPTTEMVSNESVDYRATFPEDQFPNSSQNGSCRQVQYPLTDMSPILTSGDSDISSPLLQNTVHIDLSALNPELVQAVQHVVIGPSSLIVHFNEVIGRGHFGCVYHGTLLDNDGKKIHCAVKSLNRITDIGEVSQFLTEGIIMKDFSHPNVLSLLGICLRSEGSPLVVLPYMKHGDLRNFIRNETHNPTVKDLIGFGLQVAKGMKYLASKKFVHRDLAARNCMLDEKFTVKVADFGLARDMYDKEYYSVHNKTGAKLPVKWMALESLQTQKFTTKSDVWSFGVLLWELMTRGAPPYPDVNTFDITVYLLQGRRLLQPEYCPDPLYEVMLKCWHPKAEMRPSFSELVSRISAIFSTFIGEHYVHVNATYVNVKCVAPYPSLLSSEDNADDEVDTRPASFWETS

Compound	IC50 [1] [µM]	IC50 [2] [µM]	EC50 [3] [µM]	EC50 [4] [µM]
CNCCOc1cc2nccc(Oc3c(F)cc(NC(=O)c4cnccc4OCC(F)F)cc3F)c2cc1OC [Example 60, N-[3,5-difluoro-4-({6-methoxy-7-[2-(methylamino)ethoxy]quinolin-4-yl}oxy)phenyl]-4-(2,2-difluoroethoxy)pyridine-3-carboxamide]	≤ 0.1	≤ 0.1	≤ 0.1	≤ 0.1
CNCCOc1cc2nccc(Oc3c(F)cc(NC(=O)c4cnccc4OC[C@@H](C)F)cc3F)c2cc1OC [Example 61, N-[3,5-difluoro-4-({6-methoxy-7-[2-(methylamino)ethoxy]quinolin-4-yl}oxy)phenyl]-4-[(2R)-2-fluoropropoxy]pyridine-3-carboxamide]	≤ 0.1	≤ 0.1	≤ 0.1	≤ 0.1
CNCCOc1cc2nccc(Oc3c(F)cc(NC(=O)c4cnccc4OC[C@H](C)F)cc3F)c2cc1OC [Example 62, N-[3,5-difluoro-4-({6-methoxy-7-[2-(methylamino)ethoxy]quinolin-4-yl}oxy)phenyl]-4-[(2S)-2-fluoropropoxy]pyridine-3-carboxamide]	≤ 0.1	≤ 0.1	≤ 0.1	≤ 0.1
CNCCOc1cc2nccc(Oc3c(F)cc(NC(=O)c4cnccc4OCCO)cc3F)c2cc1OC [Example 63, N-[3,5-difluoro-4-({6-methoxy-7-[2-(methylamino)ethoxy]quinolin-4-yl}oxy)phenyl]-4-(2-hydroxyethoxy)pyridine-3-carboxamide]	≤ 0.1	≤ 0.1	0.1 to 1	0.1 to 1
CNCCOc1cc2nccc(Oc3c(F)cc(NC(=O)c4cnccc4OC[C@H](C)O)cc3F)c2cc1OC [Example 64, (S)-N-(3,5-difluoro-4-((6-methoxy-7-(2-(methylamino)ethoxy)quinolin-4-yl)oxy)phenyl)-4-(2-hydroxypropoxy)pyridine-3-carboxamide]	≤ 0.1	≤ 0.1	0.1 to 1	0.1 to 1
CNCCOc1cc2nccc(Oc3c(F)cc(NC(=O)c4cnccc4OC[C@@H](C)O)cc3F)c2cc1OC [Example 65, (R)-N-(3,5-difluoro-4-((6-methoxy-7-(2-(methylamino)ethoxy)quinolin-4-yl)oxy)phenyl)-4-(2-hydroxypropoxy)pyridine-3-carboxamide]	≤ 0.1	≤ 0.1	0.1 to 1	≤ 0.1
CNCCOc1cc2nccc(Oc3c(F)cc(NC(=O)c4cnccc4OCC(C)(C)O)cc3F)c2cc1OC [Example 66, N-(3,5-difluoro-4-((6-methoxy-7-(2-(methylamino)ethoxy)quinolin-4-yl)oxy)phenyl)-4-(2-hydroxy-2-methylpropoxy)pyridine-3-carboxamide]	≤ 0.1	≤ 0.1	0.1 to 1	0.1 to 1
CNCCOc1cc2nccc(Oc3c(F)cc(NC(=O)c4cnccc4OCCOC)cc3F)c2cc1OC [Example 67, N-[3,5-difluoro-4-({6-methoxy-7-[2-(methylamino)ethoxy]quinolin-4-yl}oxy)phenyl]-4-(2-methoxyethoxy)pyridine-3-carboxamide]	≤ 0.1	≤ 0.1	0.1 to 1	0.1 to 1
CNCCOc1cc2nccc(Oc3c(F)cc(NC(=O)c4cnccc4OC4COC4)cc3F)c2cc1OC [Example 68, N-[3,5-difluoro-4-({6-methoxy-7-[2-(methylamino)ethoxy]quinolin-4-yl}oxy)phenyl]-4-(oxetan-3-yloxy)pyridine-3-carboxamide]	≤ 0.1	≤ 0.1	0.1 to 1	≤ 0.1
CCCCOc1ccncc1C(=O)Nc1cc(F)c(Oc2ccnc3cc(OCCNC)c(OC)cc23)c(F)c1 [Example 69, 4-butoxy-N-[3,5-difluoro-4-({6-methoxy-7-[2-(methylamino)ethoxy]quinolin-4-yl}oxy)phenyl]pyridine-3-carboxamide]	≤ 0.1	≤ 0.1	≤ 0.1	≤ 0.1
CNCCOc1cc2nccc(Oc3c(F)cc(NC(=O)c4cnccc4O[C@@H]4CCOC4)cc3F)c2cc1OC [Example 70, N-[3,5-difluoro-4-({6-methoxy-7-[2-(methylamino)ethoxy]quinolin-4-yl}oxy)phenyl]-4-[(3R)-oxolan-3-yloxy]pyridine-3-carboxamide]	≤ 0.1	≤ 0.1	0.1 to 1	0.1 to 1
CNCCOc1cc2nccc(Oc3c(F)cc(NC(=O)c4cnccc4O[C@H]4CCOC4)cc3F)c2cc1OC [Example 71, N-[3,5-difluoro-4-({6-methoxy-7-[2-(methylamino)ethoxy]quinolin-4-yl}oxy)phenyl]-4-[(3S)-oxolan-3-yloxy]pyridine-3-carboxamide]	≤ 0.1	≤ 0.1	0.1 to 1	0.1 to 1
CNCCOc1cc2nccc(Oc3c(F)cc(NC(=O)c4cnccc4OCC4CC4)cc3F)c2cc1OC [Example 72, 4-(cyclopropylmethoxy)-N-[3,5-difluoro-4-({6-methoxy-7-[2-(methylamino)ethoxy]quinolin-4-yl}oxy)phenyl]pyridine-3-carboxamide]	≤ 0.1	≤ 0.1	0.1 to 1	≤ 0.1
C#CCOc1ccncc1C(=O)Nc1cc(F)c(Oc2ccnc3cc(OCCNC)c(OC)cc23)c(F)c1 [Example 73, N-[3,5-difluoro-4-({6-methoxy-7-[2-(methylamino)ethoxy]quinolin-4-yl}oxy)phenyl]-4-(prop-2-yn-1-yloxy)pyridine-3-carboxamide]	≤ 0.1	≤ 0.1	≤ 0.1	≤ 0.1

Further lines, with some results ahead:

IC50 [1] [µM]	IC50 [2] [µM]	Compound	EC50 [3] [µM]	EC50 [4] [µM]
≤ 0.1	≤ 0.1	COc1cc2c(Oc3c(F)cc(NC(=O)c4cnccc4OC4CC4)cc3F)ccnc2cc1OC1CNC1 [Example 74, N-(4-{[7-(azetidin-3-yloxy)-6-methoxyquinolin-4-yl]oxy}-3,5-difluorophenyl)-4-cyclopropoxypyridine-3-carboxamide]	0.1 to 1	0.1 to 1
≤ 0.1	≤ 0.1	CCNCCOc1cc2nccc(Oc3c(F)cc(NC(=O)c4cnccc4OC4CC4)cc3F)c2cc1OC [Example 75, 4-cyclopropoxy-N-[4-({7-[2-(ethylamino)ethoxy]-6-methoxyquinolin-4-yl}oxy) -3,5-difluorophenyl]pyridine-3-carboxamide]	≤ 0.1	≤ 0.1
≤ 0.1	≤ 0.1	CNCCOc1cc2nccc(Oc3c(F)cc(NC(=O)c4cncnc4OC4CC4)cc3F)c2cc1OC [Example 76, 4-cyclopropoxy-N-[3,5-difluoro-4-({6-methoxy-7-[2-(methylamino)ethoxy]quinolin-4-yl}oxy)phenyl]pyrimidine-5-carboxamide]	0.1 to 1	0.1 to 1
≤ 0.1	≤ 0.1	CNCCOc1cc2nccc(Oc3c(F)cc(NC(=O)c4ncccc4OC4CC4)cc3F)c2cc1OC [Example 77, 3-cyclopropoxy-N-[3,5-difluoro-4-({6-methoxy-7-[2-(methylamino)ethoxy]quinolin-4-yl}oxy)phenyl]pyridine-2-carboxamide]	≤ 0.1	≤ 0.1
≤ 0.1	≤ 0.1	CNCCOc1cc2nccc(Oc3c(F)cc(NC(=O)c4cccnc4OC4CC4)cc3F)c2cc1OC [Example 78, 2-cyclopropoxy-N-[3,5-difluoro-4-({6-methoxy-7-[2-(methylamino)ethoxy]quinolin-4-yl}oxy)phenyl]pyridine-3-carboxamide]	0.1 to 1	0.1 to 1
≤ 0.1	≤ 0.1	CNCCOc1ccc2c(Oc3c(F)cc(NC(=O)c4cccnc4OC4CC4)cc3F)ccnc2c1 [Example 79, 2-cyclopropoxy-N-[3,5-difluoro-4-({7-[2-(methylamino)ethoxy]quinolin-4-yl}oxy)phenyl]pyridine-3-carboxamide]	0.1 to 1	0.1 to 1
≤ 0.1	≤ 0.1	CNCCOc1ccc2c(Oc3c(F)cc(NC(=O)c4ncccc4OC4CC4)cc3F)ccnc2c1 [Example 80, 3-cyclopropoxy-N-[3,5-difluoro-4-({7-[2-(methylamino)ethoxy]quinolin-4-yl}oxy)phenyl]pyridine-2-carboxamide]	0.1 to 1	≤ 0.1
≤ 0.1	≤ 0.1	CNCCOc1ccc2c(Oc3c(F)cc(NC(=O)c4ccncc4OC4CC4)cc3F)ccnc2c1 [Example 81, 3-cyclopropoxy-N-(3,5-difluoro-4-((7-(2-(methylamino)ethoxy)quinolin-4-yl)oxy)phenyl)isonicotinamide]	≤ 0.1	≤ 0.1
≤ 0.1	≤ 0.1	CCCOc1ccncc1C(=O)Nc1ccc(Oc2ccnc3cc(OCCNC)c(OC)cc23)c(F)c1F [Example 82, N-[2,3-difluoro-4-({6-methoxy-7-[2-(methylamino)ethoxy]quinolin-4-yl}oxy)phenyl]-4-propoxypyridine-3-carboxamide]	0.1 to 1	0.1 to 1
